According to patent EP4722207A1, “OXOISOINDOLINYL-SUBSTITUTED TETRAHYDROPYRIMIDINEDIONE DERIVATIVE AND USE THEREOF” (Gluetacs Therapeutics (Shanghai) Co., Ltd., priority 2023, dated 2024):

Tests used:
Assay type in all cases: cell-based
Settings in all cases: compounds at 50 nM and 500 nM, 24 hours
WEE1 = target: T1, WEE1 (Homo sapiens, UniProt P30291+Q96SW2); experiment: Western-blot assay, substrate protein degradation in hPBMCs: WEE1
T1 construct: effects of the compounds of the present disclosure on the expression of target proteins in cells; endogenous in cells; host or cells: human PBMCs (hPBMCs)
T1 sequence (P30291 whole entry): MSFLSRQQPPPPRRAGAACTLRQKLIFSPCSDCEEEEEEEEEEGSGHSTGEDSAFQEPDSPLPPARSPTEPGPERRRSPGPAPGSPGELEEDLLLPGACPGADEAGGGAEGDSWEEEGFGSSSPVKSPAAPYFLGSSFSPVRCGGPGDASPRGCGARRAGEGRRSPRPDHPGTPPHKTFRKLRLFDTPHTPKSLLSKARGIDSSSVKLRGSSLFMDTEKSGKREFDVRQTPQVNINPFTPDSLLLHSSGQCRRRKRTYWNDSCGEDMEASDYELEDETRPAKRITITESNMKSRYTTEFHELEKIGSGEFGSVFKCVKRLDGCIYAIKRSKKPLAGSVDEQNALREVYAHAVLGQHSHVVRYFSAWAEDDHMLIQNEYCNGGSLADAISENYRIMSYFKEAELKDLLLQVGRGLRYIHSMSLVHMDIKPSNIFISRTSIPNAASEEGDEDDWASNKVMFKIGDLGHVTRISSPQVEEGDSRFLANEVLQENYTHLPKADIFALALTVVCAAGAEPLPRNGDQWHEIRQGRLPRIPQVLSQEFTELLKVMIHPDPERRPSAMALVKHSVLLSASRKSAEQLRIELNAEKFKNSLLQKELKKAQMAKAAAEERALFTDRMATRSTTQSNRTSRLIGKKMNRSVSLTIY
T1 sequence (Q96SW2 whole entry): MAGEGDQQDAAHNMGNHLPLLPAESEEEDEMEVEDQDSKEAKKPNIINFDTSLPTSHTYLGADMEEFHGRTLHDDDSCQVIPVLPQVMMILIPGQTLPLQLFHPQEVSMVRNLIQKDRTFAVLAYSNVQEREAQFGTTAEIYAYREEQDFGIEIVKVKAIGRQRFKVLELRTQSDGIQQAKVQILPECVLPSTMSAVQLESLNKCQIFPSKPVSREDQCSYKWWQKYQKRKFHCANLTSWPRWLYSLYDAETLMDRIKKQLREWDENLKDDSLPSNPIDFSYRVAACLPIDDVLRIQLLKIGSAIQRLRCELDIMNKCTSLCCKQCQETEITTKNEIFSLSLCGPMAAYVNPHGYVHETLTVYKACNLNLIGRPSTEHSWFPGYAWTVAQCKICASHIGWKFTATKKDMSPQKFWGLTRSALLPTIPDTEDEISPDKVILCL
T1 sequence (Q16531 whole entry partner): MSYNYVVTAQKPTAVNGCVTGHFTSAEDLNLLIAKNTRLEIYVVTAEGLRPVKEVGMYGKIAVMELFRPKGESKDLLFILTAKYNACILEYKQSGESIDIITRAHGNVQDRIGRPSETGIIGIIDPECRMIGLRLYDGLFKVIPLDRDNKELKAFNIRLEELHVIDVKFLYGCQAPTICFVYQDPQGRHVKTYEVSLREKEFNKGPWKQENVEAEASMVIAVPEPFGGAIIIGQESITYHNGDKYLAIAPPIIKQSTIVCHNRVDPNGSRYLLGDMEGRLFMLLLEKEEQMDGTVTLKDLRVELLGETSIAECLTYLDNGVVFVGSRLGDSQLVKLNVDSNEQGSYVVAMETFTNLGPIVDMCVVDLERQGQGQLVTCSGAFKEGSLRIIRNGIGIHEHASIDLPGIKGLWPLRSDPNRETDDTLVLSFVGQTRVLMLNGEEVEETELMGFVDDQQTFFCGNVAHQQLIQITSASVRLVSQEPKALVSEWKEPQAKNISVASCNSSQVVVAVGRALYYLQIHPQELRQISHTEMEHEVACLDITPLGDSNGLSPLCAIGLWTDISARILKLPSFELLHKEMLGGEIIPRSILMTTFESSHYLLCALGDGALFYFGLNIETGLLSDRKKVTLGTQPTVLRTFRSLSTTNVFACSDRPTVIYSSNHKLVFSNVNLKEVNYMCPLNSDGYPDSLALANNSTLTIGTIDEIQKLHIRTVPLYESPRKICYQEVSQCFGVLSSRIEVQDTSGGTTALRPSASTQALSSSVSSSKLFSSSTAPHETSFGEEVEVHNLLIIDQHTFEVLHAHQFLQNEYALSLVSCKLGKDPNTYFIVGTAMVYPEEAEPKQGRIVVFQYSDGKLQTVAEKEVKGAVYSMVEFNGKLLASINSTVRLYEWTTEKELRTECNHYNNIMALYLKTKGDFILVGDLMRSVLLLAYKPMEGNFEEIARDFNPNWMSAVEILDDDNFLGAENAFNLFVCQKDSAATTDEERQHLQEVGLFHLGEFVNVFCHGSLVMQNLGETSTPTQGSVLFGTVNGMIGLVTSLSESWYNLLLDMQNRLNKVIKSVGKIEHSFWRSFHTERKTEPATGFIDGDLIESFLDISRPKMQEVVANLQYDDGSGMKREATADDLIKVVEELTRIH

IKZF1 = target: T2, IKZF1 (Homo sapiens, UniProt Q13422+Q96SW2); experiment: Western-blot assay, substrate protein degradation in hPBMCs: IKZF1
T2 construct: effects of the compounds of the present disclosure on the expression of target proteins in cells; endogenous in cells; host or cells: human PBMCs (hPBMCs)
T2 sequence (Q13422 whole entry): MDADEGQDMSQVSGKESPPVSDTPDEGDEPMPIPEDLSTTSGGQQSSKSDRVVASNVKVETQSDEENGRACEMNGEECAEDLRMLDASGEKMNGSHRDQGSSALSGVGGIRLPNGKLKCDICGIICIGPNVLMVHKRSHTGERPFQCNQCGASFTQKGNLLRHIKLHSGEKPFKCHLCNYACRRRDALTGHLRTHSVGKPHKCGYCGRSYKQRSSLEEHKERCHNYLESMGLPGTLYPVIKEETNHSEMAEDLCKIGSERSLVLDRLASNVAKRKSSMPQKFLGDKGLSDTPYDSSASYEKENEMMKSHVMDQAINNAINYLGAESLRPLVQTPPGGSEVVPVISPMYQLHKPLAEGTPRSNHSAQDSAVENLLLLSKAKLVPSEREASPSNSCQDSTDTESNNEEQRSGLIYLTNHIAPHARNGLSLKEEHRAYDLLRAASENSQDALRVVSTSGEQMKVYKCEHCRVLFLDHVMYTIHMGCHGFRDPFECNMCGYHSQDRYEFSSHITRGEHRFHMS
T2 sequence (Q96SW2 whole entry): as the sequence (Q96SW2 whole entry) above
T2 sequence (Q16531 whole entry partner): as the sequence (Q16531 whole entry partner) above

IKZF2 = target: T3, IKZF2 (Homo sapiens, UniProt Q96SW2+Q9UKS7); experiment: Western-blot assay, substrate protein degradation in hPBMCs: IKZF2
T3 construct: effects of the compounds of the present disclosure on the expression of target proteins in cells; endogenous in cells; host or cells: human PBMCs (hPBMCs)
T3 sequence (Q9UKS7 whole entry): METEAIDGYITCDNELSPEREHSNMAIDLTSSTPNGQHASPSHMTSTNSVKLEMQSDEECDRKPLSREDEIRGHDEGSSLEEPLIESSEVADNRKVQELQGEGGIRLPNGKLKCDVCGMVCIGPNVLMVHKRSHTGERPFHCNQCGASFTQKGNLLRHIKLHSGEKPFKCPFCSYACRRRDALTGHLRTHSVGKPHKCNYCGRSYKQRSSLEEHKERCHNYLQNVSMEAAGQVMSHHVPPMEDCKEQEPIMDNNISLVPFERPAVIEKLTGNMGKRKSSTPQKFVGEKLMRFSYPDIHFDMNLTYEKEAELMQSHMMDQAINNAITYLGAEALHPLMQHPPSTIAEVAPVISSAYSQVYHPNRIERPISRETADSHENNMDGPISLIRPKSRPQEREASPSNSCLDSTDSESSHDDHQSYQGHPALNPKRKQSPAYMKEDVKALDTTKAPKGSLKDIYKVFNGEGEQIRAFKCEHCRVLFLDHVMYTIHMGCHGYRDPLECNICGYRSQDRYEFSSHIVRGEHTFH
T3 sequence (Q96SW2 whole entry): as the sequence (Q96SW2 whole entry) above
T3 sequence (Q16531 whole entry partner): as the sequence (Q16531 whole entry partner) above

IKZF3 = target: T4, IKZF3 (Homo sapiens, UniProt Q96SW2+Q9UKT9); experiment: Western-blot assay, substrate protein degradation in hPBMCs: IKZF3
T4 construct: effects of the compounds of the present disclosure on the expression of target proteins in cells; endogenous in cells; host or cells: human PBMCs (hPBMCs)

CK1α = target: T5, CK1α (Homo sapiens, UniProt P48729+Q96SW2); experiment: Western-blot assay, substrate protein degradation in hPBMCs: CK1α
T5 construct: effects of the compounds of the present disclosure on the expression of target proteins in cells; endogenous in cells; host or cells: human PBMCs (hPBMCs)
T5 sequence (P48729 whole entry): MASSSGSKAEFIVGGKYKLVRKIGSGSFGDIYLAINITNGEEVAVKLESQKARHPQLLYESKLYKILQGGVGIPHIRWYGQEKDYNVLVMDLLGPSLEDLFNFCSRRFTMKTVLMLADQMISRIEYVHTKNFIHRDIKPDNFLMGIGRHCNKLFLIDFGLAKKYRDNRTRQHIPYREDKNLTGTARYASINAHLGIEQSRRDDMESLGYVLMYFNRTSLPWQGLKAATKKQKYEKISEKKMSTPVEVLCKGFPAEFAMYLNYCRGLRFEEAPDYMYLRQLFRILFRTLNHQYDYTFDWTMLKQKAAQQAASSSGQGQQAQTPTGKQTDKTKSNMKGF
T5 sequence (Q96SW2 whole entry): as the sequence (Q96SW2 whole entry) above
T5 sequence (Q16531 whole entry partner): as the sequence (Q16531 whole entry partner) above

GSPT1 = target: T6, GSPT1 (Homo sapiens, UniProt P15170+Q96SW2); experiment: Western-blot assay, substrate protein degradation in hPBMCs: GSPT1
T6 construct: effects of the compounds of the present disclosure on the expression of target proteins in cells; endogenous in cells; host or cells: human PBMCs (hPBMCs)
T6 sequence (P15170 whole entry): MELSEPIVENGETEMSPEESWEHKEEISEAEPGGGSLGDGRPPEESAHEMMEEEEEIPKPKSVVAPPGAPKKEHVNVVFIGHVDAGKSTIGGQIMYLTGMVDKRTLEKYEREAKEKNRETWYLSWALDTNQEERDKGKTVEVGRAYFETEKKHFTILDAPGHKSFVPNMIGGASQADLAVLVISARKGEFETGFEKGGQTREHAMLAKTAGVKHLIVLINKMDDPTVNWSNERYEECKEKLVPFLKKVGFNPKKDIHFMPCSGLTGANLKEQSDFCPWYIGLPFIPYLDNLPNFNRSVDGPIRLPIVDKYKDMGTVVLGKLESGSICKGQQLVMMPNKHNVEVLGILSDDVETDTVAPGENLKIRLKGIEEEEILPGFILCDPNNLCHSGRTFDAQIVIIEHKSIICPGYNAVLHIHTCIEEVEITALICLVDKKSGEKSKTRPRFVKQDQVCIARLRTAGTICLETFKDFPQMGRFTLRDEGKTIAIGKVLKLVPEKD
T6 sequence (Q96SW2 whole entry): as the sequence (Q96SW2 whole entry) above
T6 sequence (Q16531 whole entry partner): as the sequence (Q16531 whole entry partner) above

Structure (SMILES) | WEE1 substrate protein remaining % (WEE1) | IKZF1 substrate protein remaining % (IKZF1) | IKZF2 substrate protein remaining % (IKZF2) | IKZF3 substrate protein remaining % (IKZF3) | CK1α substrate protein remaining % (CK1α) | GSPT1 substrate protein remaining % (GSPT1)
O=C1CCN(N2Cc3cc(CN4CCC(c5ccccc5F)CC4)ccc3C2=O)C(=O)N1 [GT-06889, 1-(5-((4-(2-fluorophenyl)piperidin-1-yl)methyl)-1-oxoisoindolin-2-yl)dihydropyrimidine-2,4(1H,3H)-dione] | A ("A" is defined as 0% ≤ substrate protein remaining % ≤ 80%) | B ("B" is defined as 80%< substrate protein remaining %≤ 100%) | A ("A" is defined as 0% ≤ substrate protein remaining % ≤ 80%) | B ("B" is defined as 80%< substrate protein remaining %≤ 100%) | B ("B" is defined as 80%< substrate protein remaining %≤ 100%) | A ("A" is defined as 0% ≤ substrate protein remaining % ≤ 80%)
O=C1CCN(N2Cc3cc(CN4CCC(c5ccc(F)cc5)CC4)ccc3C2=O)C(=O)N1 [GT-06890, 1-(5-((4-(4-fluorophenyl)piperidin-1-yl)methyl)-1-oxoisoindolin-2-yl)dihydropyrimidine-2,4(1H,3H)-dione] | A ("A" is defined as 0% ≤ substrate protein remaining % ≤ 80%) | B ("B" is defined as 80%< substrate protein remaining %≤ 100%) | B ("B" is defined as 80%< substrate protein remaining %≤ 100%) | B ("B" is defined as 80%< substrate protein remaining %≤ 100%) | B ("B" is defined as 80%< substrate protein remaining %≤ 100%) | A ("A" is defined as 0% ≤ substrate protein remaining % ≤ 80%)
O=C1CCN(N2Cc3cc(CN4CCC(c5ccccc5C(F)(F)F)CC4)ccc3C2=O)C(=O)N1 [GT-06891, 1-(1-oxo-5-((4-(2-(trifluoromethyl)phenyl)piperidin-1-yl)methyl)isoindolin-2-yl)dihydropyrimidine-2,4(1H,3H)-dione] | A ("A" is defined as 0% ≤ substrate protein remaining % ≤ 80%) | B ("B" is defined as 80%< substrate protein remaining %≤ 100%) | A ("A" is defined as 0% ≤ substrate protein remaining % ≤ 80%) | B ("B" is defined as 80%< substrate protein remaining %≤ 100%) | B ("B" is defined as 80%< substrate protein remaining %≤ 100%) | A ("A" is defined as 0% ≤ substrate protein remaining % ≤ 80%)
O=C1CCN(N2C(=O)c3ccc(CN4CCC(c5cccc(F)c5Cl)CC4)cc3C2=O)C(=O)N1 [GT-06895, 5-((4-(2-chloro-3-fluorophenyl)piperidin-1-yl)methyl)-2-(2,4-dioxotetrahydropyrimidin-1(2H)-yl)isoindoline-1,3-dione] | B ("B" is defined as 80%< substrate protein remaining %≤ 100%) | A ("A" is defined as 0% ≤ substrate protein remaining % ≤ 80%) | B ("B" is defined as 80%< substrate protein remaining %≤ 100%) | B ("B" is defined as 80%< substrate protein remaining %≤ 100%) | B ("B" is defined as 80%< substrate protein remaining %≤ 100%) | B ("B" is defined as 80%< substrate protein remaining %≤ 100%)
O=C1CCN(N2C(=O)c3ccc(CN4CC=C(c5cccc(F)c5Cl)CC4)cc3C2=O)C(=O)N1 [GT-06896, 5-((4-(2-chloro-3-fluorophenyl)-3,6-dihydropyridin-1(2H)-yl)methyl)-2-(2,4-dioxotetrahydropyrimidin-1(2H)-yl)isoindoline-1,3-dione] | B ("B" is defined as 80%< substrate protein remaining %≤ 100%) | A ("A" is defined as 0% ≤ substrate protein remaining % ≤ 80%) | B ("B" is defined as 80%< substrate protein remaining %≤ 100%) | B ("B" is defined as 80%< substrate protein remaining %≤ 100%) | B ("B" is defined as 80%< substrate protein remaining %≤ 100%) | B ("B" is defined as 80%< substrate protein remaining %≤ 100%)
O=C1CCN(N2C(=O)c3ccc(CN4CCN(c5ccc(F)cn5)CC4)cc3C2=O)C(=O)N1 [GT-06965, 2-(2,4-dioxotetrahydropyrimidin-1(2H)-yl)-5-((4-(5-fluoropyridin-2-yl)piperazin-1-yl)methyl)isoindoline-1,3-dione] | B ("B" is defined as 80%< substrate protein remaining %≤ 100%) | B ("B" is defined as 80%< substrate protein remaining %≤ 100%) | A ("A" is defined as 0% ≤ substrate protein remaining % ≤ 80%) | B ("B" is defined as 80%< substrate protein remaining %≤ 100%) | B ("B" is defined as 80%< substrate protein remaining %≤ 100%) | B ("B" is defined as 80%< substrate protein remaining %≤ 100%)
O=C1CCN(N2C(=O)c3ccc(CN4CCN(c5ccc(C(F)(F)F)cn5)CC4)cc3C2=O)C(=O)N1 [GT-06968, 2-(2,4-dioxotetrahydropyrimidin-1(2H)-yl)-5-((4-(5-(trifluoromethyl)pyridin-2-yl)piperazin-1-yl)methyl)isoindoline-1,3-dione] | A ("A" is defined as 0% ≤ substrate protein remaining % ≤ 80%) | B ("B" is defined as 80%< substrate protein remaining %≤ 100%) | A ("A" is defined as 0% ≤ substrate protein remaining % ≤ 80%) | B ("B" is defined as 80%< substrate protein remaining %≤ 100%) | B ("B" is defined as 80%< substrate protein remaining %≤ 100%) | B ("B" is defined as 80%< substrate protein remaining %≤ 100%)
O=C1CCN(N2C(=O)c3ccc(CN4CCN(c5ncc(Cl)cc5Cl)CC4)cc3C2=O)C(=O)N1 [GT-06969, 5-((4-(3,5-dichloropyridin-2-yl)piperazin-1-yl)methyl)-2-(2,4-dioxotetrahydropyrimidin-1(2H)-yl)isoindoline-1,3-dione] | A ("A" is defined as 0% ≤ substrate protein remaining % ≤ 80%) | B ("B" is defined as 80%< substrate protein remaining %≤ 100%) | A ("A" is defined as 0% ≤ substrate protein remaining % ≤ 80%) | B ("B" is defined as 80%< substrate protein remaining %≤ 100%) | B ("B" is defined as 80%< substrate protein remaining %≤ 100%) | B ("B" is defined as 80%< substrate protein remaining %≤ 100%)
O=C1CCN(N2C(=O)c3ccc(CN4CCN(c5nccc(I)c5F)CC4)cc3C2=O)C(=O)N1 [GT-06970, 2-(2,4-dioxotetrahydropyrimidin-1(2H)-yl)-5-((4-(3-fluoro-4-iodopyridin-2-yl)piperazin-1-yl)methyl)isoindoline-1,3-dione] | A ("A" is defined as 0% ≤ substrate protein remaining % ≤ 80%) | B ("B" is defined as 80%< substrate protein remaining %≤ 100%) | A ("A" is defined as 0% ≤ substrate protein remaining % ≤ 80%) | B ("B" is defined as 80%< substrate protein remaining %≤ 100%) | B ("B" is defined as 80%< substrate protein remaining %≤ 100%) | B ("B" is defined as 80%< substrate protein remaining %≤ 100%)
O=C1CCN(N2C(=O)c3ccc(CN4CCN(c5cccnc5)CC4)cc3C2=O)C(=O)N1 [GT-06971, 2-(2,4-dioxotetrahydropyrimidin-1(2H)-yl)-5-((4-(pyridin-3-yl)piperazin-1-yl)methyl)isoindoline-1,3-dione] | A ("A" is defined as 0% ≤ substrate protein remaining % ≤ 80%) | B ("B" is defined as 80%< substrate protein remaining %≤ 100%) | A ("A" is defined as 0% ≤ substrate protein remaining % ≤ 80%) | B ("B" is defined as 80%< substrate protein remaining %≤ 100%) | B ("B" is defined as 80%< substrate protein remaining %≤ 100%) | B ("B" is defined as 80%< substrate protein remaining %≤ 100%)
O=C1CCN(N2C(=O)c3ccc(CN4CCN(c5cncc(Cl)c5Cl)CC4)cc3C2=O)C(=O)N1 [GT-06972, 5-((4-(4,5-dichloropyridin-3-yl)piperazin-1-yl)methyl)-2-(2,4-dioxotetrahydropyrimidin-1(2H)-yl)isoindoline-1,3-dione] | A ("A" is defined as 0% ≤ substrate protein remaining % ≤ 80%) | B ("B" is defined as 80%< substrate protein remaining %≤ 100%) | A ("A" is defined as 0% ≤ substrate protein remaining % ≤ 80%) | B ("B" is defined as 80%< substrate protein remaining %≤ 100%) | B ("B" is defined as 80%< substrate protein remaining %≤ 100%) | B ("B" is defined as 80%< substrate protein remaining %≤ 100%)
